Source: US5116949A, “Benzoyl urea compound-albumin complex” (Ishihara Sangyo Kaisha Ltd., priority 1988, dated 1992)
≈ marks a conversion by molar mass, not a printed value.

Test: Solubility in distilled water for injection drug
Assay type: physicochemical
Conditions: Compound 3 alone, read-out: Solubility (as Compound 3)

O=C(NC(=O)c1ccccc1[N+](=O)[O-])Nc1ccc(Oc2ncc(Br)cn2)c(Cl)c1 [Compound 3]
solubility: 0.024 µg/mL (≈ 0.0487 µM)
